As a reminder, the Ki is a dissociation constant, usually derived from enzyme kinetics or from competition with a known ligand. A higher Ki goes with weaker binding.

Molecules are shown by their SMILES. Bounds are passed on as bounds.

The assay addresses T1, Caspase-1 (Homo sapiens, UniProt P29466).
T1 sequence (P29466 whole entry): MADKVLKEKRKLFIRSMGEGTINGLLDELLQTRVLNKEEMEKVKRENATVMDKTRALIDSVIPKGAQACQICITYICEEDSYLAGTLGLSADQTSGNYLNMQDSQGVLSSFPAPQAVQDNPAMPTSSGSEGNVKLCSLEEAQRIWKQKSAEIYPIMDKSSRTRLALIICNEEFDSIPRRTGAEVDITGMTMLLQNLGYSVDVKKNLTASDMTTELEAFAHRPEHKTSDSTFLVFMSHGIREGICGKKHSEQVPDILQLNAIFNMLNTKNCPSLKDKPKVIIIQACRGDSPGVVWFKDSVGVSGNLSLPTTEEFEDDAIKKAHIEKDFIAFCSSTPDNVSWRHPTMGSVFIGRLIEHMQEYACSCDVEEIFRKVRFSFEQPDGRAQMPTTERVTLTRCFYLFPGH
Briefly: Inhibition of IL-1 beta converting enzyme (ICE) in human blood monocytes. Type of assay: cell-based.
For `O=C(O)C[C@H](NC(=O)OCc1ccccc1)C(=O)COCCCc1ccccc1`, the affinity, expressed as Ki, was 24 µM. `C=CCOC(=O)N[C@@H](CC(=O)O)C(=O)CCCCc1ccccc1`: the Ki was greater than 100 µM.

`C=CCOC(=O)N[C@@H](CC(=O)O)C(=O)CNCc1ccccc1`: the inhibitory constant (Ki) is greater than 100 µM.

For `C=CCOC(=O)N[C@@H](CC(=O)O)C(=O)COC(=O)CCc1ccccc1`, the inhibitory constant (Ki) worked out at 20 µM. Under `C=CCOC(=O)N[C@@H](CC(=O)O)C(=O)CNC(c1ccccc1)c1ccccc1` stands greater than 100 µM; under `C=CCOC(=O)N[C@@H](CC(=O)O)C(=O)COC(=O)CCC1CCCCC1`, 3.5 µM.

`C=CCOC(=O)N[C@@H](CC(=O)O)C(=O)COC(=O)NCc1ccccc1` returned a Ki of 74 µM. The compound `C=CCOC(=O)N[C@@H](CC(=O)O)C(=O)COC(=O)/C=C/c1ccccc1` had an inhibitory constant (Ki) of 90 µM.

Compound `C=CCOC(=O)N[C@@H](CC(=O)O)C(=O)CN(C)CCc1ccccc1` gave an inhibition constant Ki greater than 100 µM. For the compound `C=CCOC(=O)N[C@@H](CC(=O)O)C(=O)CNC(Cc1ccccc1)c1ccccc1` (stereo partly specified), the affinity corresponds to a Ki of 70 µM. In turn, `C=CCOC(=O)N[C@@H](CC(=O)O)C(=O)CNCCCc1ccccc1` returned a Ki of 67 µM. As for `CC(=O)N[C@@H](Cc1ccc(O)cc1)C(=O)N[C@H](C(=O)N[C@@H](C)C(=O)N[C@@H](CC(=O)O)C(=O)CCCCc1ccccc1)C(C)C`, the Ki amounted to 42 µM. Consider `C=CCOC(=O)N[C@@H](CC(=O)O)C(=O)CN(CCc1ccccc1)Cc1ccccc1`, for which the affinity corresponds to a Ki of 68 µM. As for `C=CCOC(=O)N[C@@H](CC(=O)O)C(=O)CNCCc1ccccc1`, the Ki was 4.4 µM. In the case of `C=CCOC(=O)N[C@@H](CC(=O)O)C(=O)CSCCCc1ccccc1`, the Ki was 27 µM. For `C=CCOC(=O)N[C@@H](CC(=O)O)C(=O)COC(=O)CCOc1ccccc1`, the affinity, expressed as Ki, was 23 µM.
